Source: ChEMBL document CHEMBL4765470 (J Med Chem, 2021)
Non-standard residues stand in square brackets, D forms with d. Residues, ends and D or L forms follow the SMILES beside them. 1Nal = N[C@@H](Cc1cccc2ccccc12)C(=O)O; αMeF = C[C@](N)(Cc1ccccc1)C(=O)O; Cha = N[C@@H](CC1CCCCC1)C(=O)O; Nle = CCCC[C@H](N)C(=O)O

Legend:
Apelin receptor [1] = biological target: T1, Apelin receptor (Homo sapiens, UniProt P35414); test: Agonist activity at human APJ receptor expressed in HEK293 cells co-expressing Rlucll-beta-arrestin2 assessed as induction of beta-arrestin2 recruitment to APJ incubated for 30 mins by BRET assay; type: cell-based
T1 sequence (P35414 whole entry): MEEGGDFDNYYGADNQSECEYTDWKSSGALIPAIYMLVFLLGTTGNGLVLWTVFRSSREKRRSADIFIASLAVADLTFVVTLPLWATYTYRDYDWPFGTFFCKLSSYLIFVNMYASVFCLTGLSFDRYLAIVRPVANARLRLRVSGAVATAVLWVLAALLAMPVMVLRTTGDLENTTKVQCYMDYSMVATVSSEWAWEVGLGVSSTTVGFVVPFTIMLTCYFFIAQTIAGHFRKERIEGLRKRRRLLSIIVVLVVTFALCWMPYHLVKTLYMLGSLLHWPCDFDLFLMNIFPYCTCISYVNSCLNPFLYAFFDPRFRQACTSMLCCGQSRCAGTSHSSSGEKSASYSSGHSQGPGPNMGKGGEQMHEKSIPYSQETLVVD

Apelin receptor [2] = biological target: T1, Apelin receptor; test: Agonist activity at human APJ receptor expressed in HEK293T cells co-expressing PDZ-Rho-Gef-RLucll assessed as induction of Galpha12 effector (PDZ-RhoGEF) to the cell membrane incubated for 5 mins by BRET assay; type: functional, cell-based
Apelin receptor [3] = biological target: T1, Apelin receptor; test: Agonist activity at human APJ receptor expressed in HEK293 cells co-expressing Galpha(i1)-RlucII(91) assessed as induction of dissociation of Galpha(i1) from G-beta-gamma subunits incubated for 5 mins by BRET assay; type: cell-based
[4] = biological target: T2, Apelin receptor (Homo sapiens) (UniProt P35414); test: Agonist activity at human APJ receptor expressed in HEK293 cells co-expressing […] assessed as induction of Galpha12 effector (PDZ-RhoGEF) to the cell membrane incubated for 5 mins by BRET assay relative to control; type: functional, cell-based; conditions: filed as agonist
T2 sequence (whole entry): T1 sequence (P35414 whole entry)

Apelin receptor [5] = biological target: T1, Apelin receptor; test: Displacement of [125I] [NIe75, Tyr77]Pyr-apelin-13 from YFP-tagged human APJ receptor expressed in HEK293 cell membranes incubated for 1 hr by gamma counting based Cheng-Prusoff equation analysis
[6] = Cardiorenal effect in Sprague-Dawley rat assessed as reduction in blood pressure at 72 nmol/kg, iv […]; type: organism-based; conditions: in vivo
Rattus norvegicus [7] = test: Cardiorenal effect in Sprague-Dawley rat assessed as urinary output level at 9.9 nmol/kg/hr dosed by continuous infusion via osmotic mini pumps […] (reference value: 1.3 mL/kg/hr); type: functional
Rattus norvegicus [8] = test: Cardiorenal effect in Sprague-Dawley rat assessed as increase left ventricular fractional shortening at 9.9 nmol/kg/hr dosed by continuous infusion via osmotic mini pumps measured after 6 hrs by echocardiography relative to base line in sham treated control; type: functional
Rattus norvegicus [9] = test: Cardiorenal effect in Sprague-Dawley rat assessed as increase left ventricular fractional shortening at 9.9 nmol/kg/hr dosed by continuous infusion via osmotic mini pumps measured after 24 hrs by echocardiography relative to base line in sham treated control; type: functional
Rattus norvegicus [10] = test: Cardiorenal effect in Sprague-Dawley rat assessed as water intake level at 9.9 nmol/kg/hr dosed by continuous infusion via osmotic mini pumps […] (reference value: 3.3 mL/kg/hr); type: functional
[11] = Cardiorenal effect in Sprague-Dawley rat assessed as reduction in blood pressure at 5 nmol/kg, iv […]; type: organism-based; conditions: in vivo

Structure (SMILES)	EC50 (Apelin receptor [1]) [nM]	EC50 (Apelin receptor [2]) [nM]	EC50 (Apelin receptor [3]) [nM]	Emax [4] [%]	Ki (Apelin receptor [5]) [nM]	Activity [6]	Activity (Rattus norvegicus [7]) [mL/kg/h]	Activity (Rattus norvegicus [8]) [%]	Activity (Rattus norvegicus [9]) [%]	Activity (Rattus norvegicus [10]) [mL/kg/h]	Activity [11]
CCCC[C@H](N)C(=O)N1CCC[C@H]1C(=O)N[C@@H](CC(C)C)C(=O)N[C@@H](Cc1cnc[nH]1)C(=O)N[C@@H](CO)C(=O)N[C@@H](CCCNC(=N)N)C(=O)N[C@H](C(=O)N1CCC[C@H]1C(=O)N[C@@H](CC1CCCCC1)C(=O)N1CCC[C@H]1C(=O)O)C(C)C (H-[Nle]PLHSRVP[Cha]P-OH)	940	54	17	43	4						
CCCC[C@H](N)C(=O)N1CCC[C@H]1C(=O)N[C@@H](CC(C)C)C(=O)N[C@@H](Cc1cnc[nH]1)C(=O)N[C@@H](CO)C(=O)N[C@@H](CCCNC(=N)N)C(=O)N[C@H](C(=O)N1CCC[C@H]1C(=O)N[C@@H](Cc1ccccc1)C(=O)N1CCC[C@H]1C(=O)O)C(C)C						Non-Toxic	2.7	11	19	4.5	
CCCC[C@H](N)C(=O)N1CCC[C@H]1C(=O)N[C@@](C)(Cc1ccccc1)C(=O)N[C@@H](Cc1cnc[nH]1)C(=O)N[C@@H](CO)C(=O)N[C@@H](CCCNC(=N)N)C(=O)N[C@H](C(=O)N1CCC[C@H]1C(=O)N[C@@H](Cc1ccccc1)C(=O)N1CCC[C@H]1C(=O)O)C(C)C (H-[Nle]P[αMeF]HSRVPFP-OH)	189	515	6.4		25						
CCCC[C@H](N)C(=O)N1CCC[C@H]1C(=O)N[C@@](C)(CC(C)C)C(=O)N[C@@H](Cc1cnc[nH]1)C(=O)N[C@@H](CO)C(=O)N[C@@H](CCCNC(=N)N)C(=O)N[C@H](C(=O)N1CCC[C@H]1C(=O)N[C@@H](Cc1ccccc1)C(=O)N1CCC[C@H]1C(=O)O)C(C)C	88	74	1.1		1.1						
CCCC[C@H](N)C(=O)N1CCC[C@H]1C(=O)N[C@@H](CC(C)C)C(=O)N[C@@H](Cc1cnc[nH]1)C(=O)N[C@@H](CO)C(=O)N[C@@H](CCCNC(=N)N)C(=O)N[C@H](C(=O)N1CCC[C@H]1C(=O)N[C@@H](Cc1cccc2ccccc12)C(=O)N1CCC[C@H]1C(=O)O)C(C)C (H-[Nle]PLHSRVP[1Nal]P-OH)	537	1040	23		21						

More lines, in order of falling EC50 (Apelin receptor [1]), values ahead:

EC50 (Apelin receptor [1]) [nM]	EC50 (Apelin receptor [2]) [nM]	EC50 (Apelin receptor [3]) [nM]	Emax [4] [%]	Ki (Apelin receptor [5]) [nM]	Structure (SMILES)	Activity [6]	Activity (Rattus norvegicus [7]) [mL/kg/h]	Activity (Rattus norvegicus [8]) [%]	Activity (Rattus norvegicus [9]) [%]	Activity (Rattus norvegicus [10]) [mL/kg/h]	Activity [11]
533	314	14		18	CCCC[C@H](N)C(=O)N1CCC[C@H]1C(=O)N[C@@H](CC(C)C)C(=O)N[C@@H](Cc1cnc[nH]1)C(=O)N[C@@H](CO)C(=O)N[C@@H](CCCNC(=N)N)C(=O)N[C@@H](Cc1ccccc1)C(=O)N1CCC[C@H]1C(=O)N[C@@H](Cc1ccccc1)C(=O)N1CCC[C@H]1C(=O)O (H-[Nle]PLHSRFPFP-OH)						
172	224	6.9		5.1	CCCC[C@H](N)C(=O)N1CCC[C@H]1C(=O)N[C@@H](CC(C)C)C(=O)N[C@@H](Cc1cnc[nH]1)C(=O)N[C@@H](CO)C(=O)N[C@@H](CCCNC(=N)N)C(=O)N[C@H](C(=O)N1CCC[C@H]1C(=O)N[C@@H](Cc1ccccc1)C(=O)N1C2CCCCC2C[C@H]1C(=O)O)C(C)C (some centres not stated)						
151	128	4		9.3	CCCC[C@H](N)C(=O)N1CCC[C@H]1C(=O)N[C@@H](CC(C)C)C(=O)N[C@@H](Cc1cnc[nH]1)C(=O)N[C@@H](CO)C(=O)N[C@@H](CCCNC(=N)N)C(=O)N[C@H](C(=O)N1CCC[C@H]1C(=O)N[C@@H](CCc1ccccc1)C(=O)N1CCC[C@H]1C(=O)O)C(C)C						
123	30	4.5		13	CCCC[C@H](N)C(=O)N1CCC[C@H]1C(=O)N[C@@H](CC(C)C)C(=O)N[C@@H](Cc1cnc[nH]1)C(=O)N[C@@H](CO)C(=O)N[C@@H](CCCNC(=N)N)C(=O)N[C@H](C(=O)N1CCC[C@H]1C(=O)N[C@@H](Cc1ccccc1)C(=O)N[C@@H](Cc1cccc2ccccc12)C(=O)O)C(C)C (H-[Nle]PLHSRVPF[1Nal]-OH)						
45	25	5.3		0.19	CSCC[C@H](NC(=O)[C@@H](NC(=O)[C@H](CC(C)C)NC(=O)[C@H](CC(N)=O)NC(=O)[C@@H](NC(=O)[C@@H]1CCCN1C(=O)[C@H](CCCNC(=N)N)NC(=O)[C@@H]1CCC(=O)N1)C(C)C)[C@@H](C)O)C(=O)N[C@@H](C)C(=O)N[C@@H](CCCNC(=N)N)C(=O)N[C@@H](CCCCN)C(=O)N[C@@H](CC(C)C)C(=O)N[C@@H](CCCNC(=N)N)C(=O)N[C@@H](CCCCN)C(=O)N[C@@H](Cc1cnc[nH]1)C(=O)N[C@@H](CC(N)=O)C(=O)N[C@H]1CSSC[C@@H](C(=O)N[C@@H](CCSC)C(=O)N2CCC[C@H]2C(=O)N[C@@H](CC(C)C)C(=O)N[C@@H](Cc2cnc[nH]2)C(=O)N[C@@H](CO)C(=O)N[C@@H](CCCNC(=N)N)C(=O)N[C@H](C(=O)N2CCC[C@H]2C(=O)N[C@@H](Cc2ccccc2)C(=O)N2CCC[C@H]2C(=O)O)C(C)C)NC(=O)[C@H](CCCNC(=N)N)NC(=O)[C@H](CCCNC(=N)N)NC(=O)[C@H](CCC(N)=O)NC(=O)[C@H](CC(C)C)NC1=O		3.5	18	27	5	<= 40 mmHg
